Assay results reported in patent publication US20150086530A1, “DOSING REGIMENS FOR THE TREATMENT OF POMPE DISEASE” (Amicus Therapeutics, Inc., priority 2012, published 2015).
Like-named read-outs stand apart in the source and are kept apart here.

What was measured:
[1] = Plasma AT2220 (1-deoxynojirimycin hydrochloride) pharmacokinetics by LC-MS/MS in Pompe patients; format: in vivo, human; settings: for Cmax / Tmax / half-life / AUC(0-t) / AUC(0-inf): human, plasma
Method: Blood samples for pharmacokinetic analysis will be collected before dosing 1-deoxynojirimycin hydrochloride and at 1 hour after administration of 1-deoxynojirimycin hydrochloride (i.e., immediately before initiation of the alglucosidase alfa infusion) and over the 24-hour period after initiation of the alglucosidase alfa infusion. Plasma and WBC GAA enzyme activity, plasma 1-deoxynojirimycin hydrochloride concentrations and plasma anti-rhGAA antibody titer will be determined from the collected blood samples at the times summarized in Table 2. A 12-lead ECG will be performed at the end of the alglucosidase alfa infusion, immediately after collection of the post-infusion blood sample.
Concentrations of 1-deoxynojirimycin hydrochloride in blood samples will be measured in plasma using a validated LC-MS/MS assay. GAA activity in plasma will be determined by a validated assay measuring enzyme activity using 4-MUG, with and without Con A. GAA protein levels will be measured by Western blotting using anti-human GAA antibody.
Non-compartmental pharmacokinetic parameters of AUC0-t, AUCinfinity, Cmax, tmax, kel and half-life will be calculated from plasma 1-deoxynojirimycin hydrochloride concentrations and plasma rhGAA enzyme levels. Pharmacokinetic parameters will be summarized by treatment using descriptive statistics. The AUC0-t, AUCinfinity ratios for GAA enzyme activity alone or after administration with 1-deoxynojirimycin hydrochloride will be calculated. Pharmacokinetic and pharmacodynamic data for those subjects receiving Myozyme® and Lumizyme® will be analyzed separately.

glycogen (GAA substrate) = assay: Tissue glycogen levels in GAA knock-out mice after repeat rhGAA with chaperone; format: in vivo, mouse; settings: 21 days after last injection
Method: Twelve week old GAA KO mice were administered recombinant human GAA (Myozyme) 20 mg/kg i.v. every other week for 8 weeks. […]
Repeat rhGAA administration studies were conducted in GAA knock-out mice to assess effects on tissue glycogen levels.
Twelve week old GAA KO mice were administered 20 mg/kg i.v. recombinant human GAA (Myozyme) every other week for 8 weeks. […] Tissues were collected 21 days after the last dose of rhGAA and the level of glycogen (GAA substrate) was measured.

[2] = AT2220 concentration in muscle biopsies by LC-MS/MS in Pompe patients; format: in vivo, human; settings: for muscle concentrations from Day 3 or Day 7 biopsies: 50 mg and 100 mg, lower limit of quantitation 8 ng/g; for concentration at 7 day / concentration at 3 day: human, muscle, oral, read-out: Muscle AT2220 Conc
Source text: GAA enzyme activity will be examined in muscle biopsy samples. One piece of muscle tissue will be removed as described in Table 1. GAA activity in muscle will be determined by a validated assay measuring enzyme activity using 4-MUG, with and without Con A. GAA protein levels will be measured by Western blotting using anti-human GAA antibody. 1-deoxynojirimycin hydrochloride concentrations in muscle samples collected in Period 2 will be determined using a validated LC-MS/MS assay.

[3] = co-administration with rhGAA 20 mg/kg IV every other week for 8 weeks

Cmax ([1]; oral, 250 mg, Cohort 3, 250 mg AT2220, Median, N=6, read-out: Plasma AT2220 Cmax): 3180 ng/mL
Tmax ([1]; oral, 250 mg, Cohort 3, 250 mg AT2220, Median, N=6, read-out: Plasma AT2220 Tmax): 2 h
half-life ([1]; oral, 250 mg, Cohort 3, 250 mg AT2220, Median, N=6, read-out: Plasma AT2220 T½ (converted)): 3.6 h
AUC(0-t) ([1]; oral, 250 mg, Cohort 3, 250 mg AT2220, individual subjects, read-out: Plasma AT2220 AUC0-T): 18700 ng·h/mL
AUC(0-inf) ([1]; oral, 250 mg, Cohort 3, 250 mg AT2220, individual subjects, read-out: Plasma AT2220 AUC0-∞): 19300 ng·h/mL
Tmax ([1]; oral, 250 mg, Cohort 3, 250 mg AT2220, individual subjects, read-out: Plasma AT2220 Tmax): 3 h
half-life ([1]; oral, 250 mg, Cohort 3, 250 mg AT2220, individual subjects, read-out: Plasma AT2220 T½ (converted)): 4.6 h
half-life ([1]; po, 50 mg, 50 mg single oral dose (N=4), arithmetic mean (SD), read-out: t½, plasma AT2220 (converted)): 3.1 h
AUC(0-t) ([1]; po, 50 mg, 50 mg single oral dose (N=4), geometric mean (CV %), read-out: AUC0-T, plasma AT2220): 6970 ng·h/mL
AUC(0-inf) ([1]; po, 50 mg, 50 mg single oral dose (N=4), geometric mean (CV %), read-out: AUC0-∞, plasma AT2220): 7010 ng·h/mL
Tmax ([1]; po, 50 mg, 50 mg single oral dose (N=4), median (range), read-out: Tmax, plasma AT2220): 2 h
Cmax ([1]; po, 50 mg, 50 mg single oral dose (N=4, Cohort 1), geometric mean (CV %), read-out: Cmax, plasma AT2220): 1040 ng/mL
half-life ([1]; po, 100 mg, 100 mg single oral dose (N=6), arithmetic mean (SD), read-out: t½, plasma AT2220 (converted)): 3.4 h
AUC(0-t) ([1]; po, 100 mg, 100 mg single oral dose (N=6), geometric mean (CV %), read-out: AUC0-T, plasma AT2220): 13000 ng·h/mL
AUC(0-inf) ([1]; po, 100 mg, 100 mg single oral dose (N=6), geometric mean (CV %), read-out: AUC0-∞, plasma AT2220): 13100 ng·h/mL
Tmax ([1]; po, 100 mg, 100 mg single oral dose (N=6), median (range), read-out: Tmax, plasma AT2220): 3 h
Cmax ([1]; po, 100 mg, 100 mg single oral dose (N=6, Cohort 2), geometric mean (CV %), read-out: Cmax, plasma AT2220): 1860 ng/mL
increase in mean AUC, plasma AT2220 ([1]; to 250 mg): 3.2 fold
increase in mean Cmax, plasma AT2220 ([1]; to 250 mg): 3.0 fold
Muscle AT2220 Conc ([2]; Cohort 2, 100 mg AT2220, Period 2, biopsy Day 3, individual subjects, LLOQ = 8.0 ng/g (16.0 or […] for diluted samples)): BLQ^c
muscle AT2220 concentrations ([2]; Cohort 3 (250 mg) vs lower doses, preliminary): Dose-related increases
subjects with a quantifiable AT2220 concentration in muscle ([2]; Cohort 3 (250 mg), biopsies 3 or 7 days post dose, preliminary): 4 of 6
Muscle AT2220 Conc ([2]; Cohort 3, 250 mg AT2220, Period 2, biopsy Day 7, individual subjects, LLOQ = 8.0 ng/g (16.0 or […] for diluted samples)): 27.9 ng/g
Muscle AT2220 Conc ([2]; Patient D, 50 mg, Period 2, Day 7, LLOQ = 8.0 ng/g): BLQ
Muscle AT2220 Conc ([2]; Patient F, 100 mg, Period 2, Day 7, sample diluted 2-fold, LLOQ = […]): BLQ^b
Muscle AT2220 Conc ([2]; Patient G, 100 mg, Period 2, Day 7, LLOQ = 8.0 ng/g): BLQ
Muscle AT2220 Conc ([2]; Patient H, 100 mg, Period 2, Day 3, sample diluted 2-fold, LLOQ = […]): BLQ^b
Muscle AT2220 Conc ([2]; Patient I, 100 mg, Period 2, Day 7, sample diluted 2-fold, LLOQ = […]): BLQ^b
Muscle AT2220 Conc ([2]; Patient J, 100 mg, Period 2, Day 3, sample diluted 3-fold, LLOQ = […]): BLQ^c
concentration at 7 day ([2]; 50 mg, Cohort 1, 50 mg AT2220, Period 2, biopsy Day 7, individual subjects, LLOQ = 8.0 ng/g (16.0 or […] for diluted samples)): 13.1 ng/g
concentration at 7 day ([2]; 50 mg, Patient A, 50 mg, Period 2, Day 7, LLOQ = 8.0 ng/g): 11.8 ng/g
concentration at 7 day ([2]; 50 mg, Patient B, 50 mg, Period 2, Day 7, LLOQ = 8.0 ng/g): 10 ng/g
concentration at 7 day ([2]; 50 mg, Patient C, 50 mg, Period 2, Day 7, LLOQ = 8.0 ng/g): 13.1 ng/g
concentration at 3 day ([2]; 100 mg, Cohort 2, 100 mg AT2220, Period 2, biopsy Day 3, individual subjects, LLOQ = 8.0 ng/g (16.0 or […] for diluted samples)): 17.8 ng/g
concentration at 3 day ([2]; 100 mg, Patient E, 100 mg, Period 2, Day 3, LLOQ = 8.0 ng/g): 17.8 ng/g
concentration at 3 day ([2]; 250 mg, Cohort 3, 250 mg AT2220, Period 2, biopsy Day 3, individual subjects, LLOQ = 8.0 ng/g (16.0 or […] for diluted samples)): 54.4 ng/g
concentration at 7 day ([2]; 250 mg, Cohort 3, 250 mg AT2220, Period 2, biopsy Day 7, individual subjects, LLOQ = 8.0 ng/g (16.0 or […] for diluted samples)): 28.1 ng/g
Compound: OC[C@H]1NC[C@H](O)[C@@H](O)[C@@H]1O [AT2220, (2R,3R,4R,5S)-2-hydroxymethyl-piperidine-3,4,5-triol]
tissue glycogen levels (glycogen (GAA substrate); 10 or 30 mg/kg PO 30 min before rhGAA 20 mg/kg IV every other week for 8 weeks): dose-dependent reduction
glycogen reduction vs rhGAA alone, biceps (glycogen (GAA substrate); [3]): ~1.4 fold
glycogen reduction vs rhGAA alone, diaphragm (glycogen (GAA substrate); [3]): ~1.6 fold
glycogen reduction vs rhGAA alone, gastrocnemius (glycogen (GAA substrate); [3]): ~2.7 fold
glycogen reduction vs rhGAA alone, heart (glycogen (GAA substrate); [3]): approximately 2.3 fold
glycogen reduction vs rhGAA alone, quadriceps (glycogen (GAA substrate); [3]): ~2.6 fold
glycogen reduction vs rhGAA alone, soleus (glycogen (GAA substrate); [3]): ~1.2 fold
glycogen reduction vs rhGAA alone, tongue (glycogen (GAA substrate); [3]): ~1.3 fold
glycogen reduction vs rhGAA alone, triceps (glycogen (GAA substrate); [3]): ~2.2 fold
muscle concentrations from Day 3 or Day 7 biopsies [2]: either below or near the lower limit of quantitation
muscle concentrations from Day 3 or Day 7 biopsies ([2]; listed as 1-DNJ-HCl): either below or just above the lower limit of quantification
clearance from muscle ([2]; all four cohorts, Day 7): cleared from muscle to near-undetectable levels by Day 7
